Tests used:
[1] = biological target: T1, human AR recombinant (Homo sapiens, UniProt P10275); experiment: Relative Binding Affinity (RBA) assay, competitive binding with [3H]R1881; settings: against [3H]R1881; R1881 standard = 100 by definition
T1 construct: purchased Pan-Vera
T1 sequence (P10275 1-920): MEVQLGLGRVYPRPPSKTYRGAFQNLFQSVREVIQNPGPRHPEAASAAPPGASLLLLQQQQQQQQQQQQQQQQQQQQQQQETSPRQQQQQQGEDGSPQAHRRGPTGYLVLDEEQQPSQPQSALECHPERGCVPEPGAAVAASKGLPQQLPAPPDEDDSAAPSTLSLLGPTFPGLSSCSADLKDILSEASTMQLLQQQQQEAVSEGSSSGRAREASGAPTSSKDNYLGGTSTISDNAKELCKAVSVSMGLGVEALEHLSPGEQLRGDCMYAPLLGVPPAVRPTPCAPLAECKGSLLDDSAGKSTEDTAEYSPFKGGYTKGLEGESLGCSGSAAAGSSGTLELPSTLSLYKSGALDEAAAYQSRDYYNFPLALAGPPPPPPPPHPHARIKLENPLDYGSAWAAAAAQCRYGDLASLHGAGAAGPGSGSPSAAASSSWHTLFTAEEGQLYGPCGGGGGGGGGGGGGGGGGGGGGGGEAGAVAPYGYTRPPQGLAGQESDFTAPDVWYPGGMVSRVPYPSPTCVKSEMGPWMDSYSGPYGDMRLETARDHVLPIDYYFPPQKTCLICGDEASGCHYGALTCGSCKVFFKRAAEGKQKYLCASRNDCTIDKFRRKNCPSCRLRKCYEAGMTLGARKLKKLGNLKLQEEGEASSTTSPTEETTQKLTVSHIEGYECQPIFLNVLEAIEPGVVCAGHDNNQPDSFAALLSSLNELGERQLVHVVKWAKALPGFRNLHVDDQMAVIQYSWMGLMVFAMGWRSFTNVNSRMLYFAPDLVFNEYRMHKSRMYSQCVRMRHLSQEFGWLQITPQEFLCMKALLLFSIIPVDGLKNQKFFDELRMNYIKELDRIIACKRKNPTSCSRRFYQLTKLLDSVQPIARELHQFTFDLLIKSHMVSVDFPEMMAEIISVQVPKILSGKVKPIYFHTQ
Protocol: In order to measure the affinity of the compounds to the A, the compounds of the general Formula I, referred herein also as the AR ligands were tested in RBA (Relative Binding Affinity) assay, which is a competitive binding assay with ^3H—R1881, a high affinity AR binding ligand.
RBA of androgens were measured against [^3H]R1881 in human AR recombinant (Pan-Vera). RBA values of the standards are 100 by definition (Brandes S. J., et al., Molecular Pharmacology; 1987; 32:391-400).

[2] = Blood stability test, incubation in blood at 37° C.; type: in vitro ADME, human
Protocol: Blood was taken in EDTA tubes in order to prevent coagulation. 550 μl of ^18F-labeled (R)-Compound 3 was added to 1 ml of blood, and put in a rotating incubator at 37° C. The incubation times were 0, 30, 60 and 90 minutes. After the incubation, the blood was centrifuged for 5 minutes at 3000 rpm. The plasma was centrifuged again for 5 minutes at 10600 g and the pellet was discarded. 400 μl of the resulting supernatant was added to 800 μl of 30% THF/CH3CN, vortexed for 30 seconds and centrifuged for 5 minute at 10600 g. The supernatant was filtered through 0.45 μm filter and injected to HPLC column. The column was eluted with a mixture of acetate buffer (pH 3.8) and acetonitrile (35:65) at flow rate of 3 ml/min. The HPLC eluent was monitored sequentially for UV absorbance at 254 nm and radioactivity. Each sample was done in duplicate.
The same procedure was done with the ^11C-labeled (R)-Compound 3 after incubation of 0, 15, 30 and 45 minutes.
Blood stability, which was measured by phosphor-imager, was done in the same procedure. The filtered samples were loaded on reverse phase TLC plates and exposed to the phosphor-imager plates for 1 hour.
In the case of (R)-Compound 2, the incubation in the human blood sample was 0, 15, 30 and 45 minutes. The percent of extraction of the compound was around 40%.

[3] = test system: LNCap cell lines; experiment: Antagonist test, PSA secretion measured by ELISA; type: cell-based; settings: 48 and 72 hours; for PSA secretion in comparison to the control: given alone, testosterone 100 nM, compound 0.2, 0.5 and 1 μM
Protocol: PSA (Prostate Specific Antigen) is a secreted protein which is regulated by AR and is clinically used to detect prostate cancer in humans. LNCap cell lines were seeded in 24 wells (10^5 cells/well) in 10% FCS RPMI supplemented with sodium-pyruvate, pen/strep, L-glutamine, testosterone and insulin and grown for 24 hours. Then, the cells were washed 3 times with cold PBS and incubated in 10% FCS red-phenol-free RPMI. Testosterone (100 nM), ^18F-labeled (R)-Compound 3 (0.2, 0.5 and 1 μM) or both were added to the wells. Ethanol, which was used as the solvent of the testosterone and ^18F-labeled (R)-Compound 3, was added to the control wells in the same concentration.
At 48 and 72 hours, a sample of the medium was taken and the PSA levels were measured by ELISA.

[4] = Biodistribution in normal Lewis male rats, gamma-counter; type: in vivo; settings: tail vein
Protocol: The distribution of ^11C-labeled (R)-Compound 3 was measured in normal Lewis male rats which have been kept under SPF conditions. The labeled compound was injected through the tail vein of the rat. The rats were sacrificed 30, 60 and 90 minutes post injection, and prostate, blood, liver, muscle and kidney were removed and the activity in each organ was measured by gamma-counter (Tables 2A-D).

[5] = In-vivo blood stability in nude mice; settings: blood sampled after 0, 15, 30 and 35 minutes, phosphor-imagers
Protocol: In-vivo blood stability experiments were performed for the ^11C-labeled (R)-Compound 3. The compound was injected into nude mice. Blood was sampled from the mice after 0, 15, 30 and 35 minutes. The labeled compound was extracted and evaluated using phosphor-imagers.

[6] = PET-CT scan of distribution, bladder activity; type: in vivo; settings: normal Lewis male rats, 40 minutes post injection
Protocol: In some clinically used radio-tracers, such of FDG, activity is observed in the bladder, and mask the prostate. […] The distribution of the compound was scanned by human PET-CT. Counter dye was injected to the animal 10 minutes prior to the injection of the labeled compound and the exact location of the bladder was detected by CT. In accordance with the biodistribution experiment, activity was measured in the metabolic organs.

[7] = 30 minutes post injection, Table 2A
[8] = 60 minutes post injection, Table 2B
[9] = 60 minutes post injection, Table 2B (Rats 1, 2)
[10] = 60 minutes post injection, Table 2C
[11] = 60 minutes post injection, Table 2C (Rats 3, 4)
[12] = 90 minutes post injection, Table 2D
[13] = blood, 37° C., incubation 0, 30, 60 and 90 minutes, HPLC

CN(C)C[C@@](C)(O)C(=O)Nc1ccc(C#N)c(C(F)(F)F)c1 [(R)-Compound 1, (R)-3-Dimethyl-N-(4-cyano-3-trifluoromethyl-phenyl)-2-hydroxy-2-methyl-propionamide]
RBA (%) [1]: 0.030%

CN(C)C[C@@](C)(O)C(=O)Nc1ccc([N+](=O)[O-])c(C(F)(F)F)c1 [(R)-Compound 2, (R)-3-Dimethyl-2-hydroxy-2-methyl-N-(4-nitro-3-trifluoromethyl-phenyl)-propionamide]
percent of extraction ([2]; human blood sample, incubation 0, 15, 30 and 45 minutes): around 40%
formation of metabolites ([2]; human blood sample, incubation 0, 15, 30 and 45 minutes, phosphor-imager): no metabolites were evident
RBA (%) [1]: 0.036%

CN(C)C[C@@](C)(O)C(=O)Nc1ccc(F)c(C(F)(F)F)c1 [(R)-Compound 3, (R)-3-Dimethyl-N-(4-fluoro-3-(trifluoromethyl)phenyl)-2-hydroxy-2-methyl-propanamide]
RBA (%) [1]: 0.029%

C[C@](O)(CBr)C(=O)Nc1ccc(F)c(C(F)(F)F)c1 [(R)-F-1, (R)-3-Bromo-N-(4-fluoro-3-(trifluoromethyl)phenyl)-2-hydroxy-2-methyl-propanamide]
RBA (%) [1]: 0.057%

CC(C)(O)C(=O)Nc1ccc(F)c(C(F)(F)F)c1 [(R)-F-2, N-(4-fluoro-3-(trifluoromethyl)phenyl)-2-hydroxy-2-methylpropanamide]
RBA (%) [1]: 0.027%

C[C@]1(O)CC[C@H]2[C@@H]3CCC4=CC(=O)CCC4=C3C=C[C@@]21C [Compound R1881]
RBA (%) [1]: 100%

CC(C)(O)C(=O)Nc1ccc([N+](=O)[O-])c(C(F)(F)F)c1 [Hydroxyflutamide]
RBA (%) [1]: 0.027%

C[C@]12CC[C@H]3[C@@H](CCC4=CC(=O)CC[C@@]43C)[C@@H]1CC[C@@H]2O [Testosterone, reference compound]
PSA secretion in comparison to the control [3]: increased PSA secretion

CN([11CH3])C[C@@](C)(O)C(=O)Nc1ccc(F)c(C(F)(F)F)c1 [^11C-labeled (R)-Compound 3]
Biodistribution Blood, Av. [4, 7]: 0.76 % id/g
Biodistribution Blood, Rat 1 [4, 7]: 0.89 % id/g
Biodistribution Blood, Rat 2 [4, 7]: 0.63 % id/g
Biodistribution Kidney, Av. [4, 7]: 12.43 % id/g
Biodistribution Kidney, Rat 1 [4, 7]: 15.57 % id/g
Biodistribution Kidney, Rat 2 [4, 7]: 9.29 % id/g
Biodistribution Liver, Av. [4, 7]: 3.96 % id/g
Biodistribution Liver, Rat 1 [4, 7]: 4.26 % id/g
Biodistribution Liver, Rat 2 [4, 7]: 3.67 % id/g
Biodistribution Muscle, Av. [4, 7]: 1.14 % id/g
Biodistribution Muscle, Rat 1 [4, 7]: 1.07 % id/g
Biodistribution Muscle, Rat 2 [4, 7]: 1.21 % id/g
Biodistribution Prostate, Av. [4, 7]: 1.47 % id/g
Biodistribution Prostate, Rat 1 [4, 7]: 1.67 % id/g
Biodistribution Prostate, Rat 2 [4, 7]: 1.27 % id/g
Biodistribution Blood, Rat 1 [4, 8]: 0.54 % id/g
Biodistribution Blood, Rat 2 [4, 8]: 0.41 % id/g
Biodistribution Kidney, Rat 1 [4, 8]: 5.03 % id/g
Biodistribution Kidney, Rat 2 [4, 8]: 3.54 % id/g
Biodistribution Liver, Rat 1 [4, 8]: 8.79 % id/g
Biodistribution Liver, Rat 2 [4, 8]: 4.61 % id/g
Biodistribution Muscle, Rat 1 [4, 8]: 1.02 % id/g
Biodistribution Muscle, Rat 2 [4, 8]: 0.68 % id/g
Biodistribution Prostate, Rat 1 [4, 8]: 2.32 % id/g
Biodistribution Prostate, Rat 2 [4, 8]: 1.05 % id/g
Biodistribution Blood, Av. [4, 9]: 0.48 % id/g
Biodistribution Kidney, Av. [4, 9]: 4.29 % id/g
Biodistribution Liver, Av. [4, 9]: 6.70 % id/g
Biodistribution Muscle, Av. [4, 9]: 0.85 % id/g
Biodistribution Prostate, Av. [4, 9]: 1.69 % id/g
Biodistribution Blood, Rat 3 [4, 10]: 0.28 % id/g
Biodistribution Blood, Rat 4 [4, 10]: 0.35 % id/g
Biodistribution Kidney, Rat 3 [4, 10]: 2.48 % id/g
Biodistribution Kidney, Rat 4 [4, 10]: 2.54 % id/g
Biodistribution Liver, Rat 3 [4, 10]: 5.30 % id/g
Biodistribution Liver, Rat 4 [4, 10]: 5.14 % id/g
Biodistribution Muscle, Rat 3 [4, 10]: 0.55 % id/g
Biodistribution Muscle, Rat 4 [4, 10]: 0.56 % id/g
Biodistribution Prostate, Rat 3 [4, 10]: 1.13 % id/g
Biodistribution Prostate, Rat 4 [4, 10]: 1.18 % id/g
Biodistribution Blood, Av. [4, 11]: 0.32 % id/g
Biodistribution Kidney, Av. [4, 11]: 2.51 % id/g
Biodistribution Liver, Av. [4, 11]: 5.22 % id/g
Biodistribution Muscle, Av. [4, 11]: 0.55 % id/g
Biodistribution Prostate, Av. [4, 11]: 1.16 % id/g
Biodistribution Blood, Av. [4, 12]: 0.36 % id/g
Biodistribution Blood, Rat 1 [4, 12]: 0.3 % id/g
Biodistribution Blood, Rat 2 [4, 12]: 0.42 % id/g
Biodistribution Kidney, Av. [4, 12]: 2.46 % id/g
Biodistribution Kidney, Rat 1 [4, 12]: 2.24 % id/g
Biodistribution Kidney, Rat 2 [4, 12]: 2.68 % id/g
Biodistribution Liver, Av. [4, 12]: 5.35 % id/g
Biodistribution Liver, Rat 1 [4, 12]: 5.16 % id/g
Biodistribution Liver, Rat 2 [4, 12]: 5.55 % id/g
Biodistribution Muscle, Av. [4, 12]: 0.53 % id/g
Biodistribution Muscle, Rat 1 [4, 12]: 0.48 % id/g
Biodistribution Muscle, Rat 2 [4, 12]: 0.57 % id/g
Biodistribution Prostate, Av. [4, 12]: 1.17 % id/g
Biodistribution Prostate, Rat 1 [4, 12]: 1.22 % id/g
Biodistribution Prostate, Rat 2 [4, 12]: 1.12 % id/g
metabolites in blood in vivo [5]: No metabolites were evident
activity in the bladder [6]: No activity was observed in the bladder

CN(C)C[C@@](C)(O)C(=O)Nc1ccc([18F])c(C(F)(F)F)c1 [^18F-labeled (R)-Compound 3]
metabolites in blood [2, 13]: no metabolites were evident
percent of extraction [2, 13]: 39-43%
PSA secretion in comparison to the control [3]: reduced the PSA secretion
testosterone-induced secretion of PSA ([3]; together with testosterone 100 nM, 0.2, 0.5 and 1 μM, P<0.01): significantly reduced the testosterone-induced secretion of PSA

Reference: US20090226368A1, “Androgen-Receptor (AR) Ligands for Use in the Treatment and Diagnosis of AR-Related Pathologies” (priority 2005, published 2009)
